One assay addresses GABA AT (Rattus norvegicus, UniProt P50554). In words: GABA transaminase. Type of assay: biochemical.
The next assay concerns CBS. To be noted: read-out: IC50 for CBS; cited from earlier work.

What is called IC50 is the concentration that inhibits the measured activity by half.

Sequence of GABA AT (P50554 28-500): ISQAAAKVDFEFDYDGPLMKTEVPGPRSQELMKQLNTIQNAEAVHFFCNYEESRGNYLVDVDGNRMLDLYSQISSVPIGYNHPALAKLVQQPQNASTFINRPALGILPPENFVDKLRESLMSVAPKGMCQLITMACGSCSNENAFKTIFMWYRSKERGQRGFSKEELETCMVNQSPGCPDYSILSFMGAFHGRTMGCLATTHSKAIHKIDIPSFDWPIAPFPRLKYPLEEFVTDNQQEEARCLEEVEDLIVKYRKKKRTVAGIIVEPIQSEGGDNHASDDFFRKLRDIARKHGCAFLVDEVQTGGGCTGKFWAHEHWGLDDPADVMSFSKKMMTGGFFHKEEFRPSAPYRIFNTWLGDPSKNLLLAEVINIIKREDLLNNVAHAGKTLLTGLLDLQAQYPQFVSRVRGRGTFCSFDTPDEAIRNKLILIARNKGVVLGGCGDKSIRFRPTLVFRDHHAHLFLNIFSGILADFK

On to `NOCC(=O)O` [AOAA, aminooxyacetic acid], for which, at GABA AT (IC50 GABA AT vs IC50 CBS), the “fold better inhibitor of GABA AT than of CBS” value was determined as 33 fold. Besides, the half-inhibitory concentration (IC50) on GABA AT (read-out: IC50 for GABA AT, rat brain homogenate) was approximately 0.36 µM; with CBS it was approximately 12 µM.

Source of the values: publication PMC4850510 (ACS Central Science, 2016).
